Measured values reported in ChEMBL document CHEMBL1201862, “PubChem BioAssay data set” (2004).
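Where inhibition never reached the appropriate level, the endpoint shown equals the highest concentration tested. Otherwise, values were interpolated linearly from a five-concentration, 48-hour dose response in 96-well plates. Here, GI50 denotes the concentration required for 50% inhibition of growth.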 Calls of active or inactive are those of the source. Cut-off read from the data, not from the text of the source: active = GI50 up to about 1.1 µM and inactive = higher.

What was measured:
Experiment in all cases: inhibition of tumour cell growth, NCI panel, 48 h
LOX IMVI = test system: LOX IMVI
KM12 = test system: KM12
786-0 = test system: 786-0
HCT-15 = test system: HCT-15
CCRF-CEM = test system: CCRF-CEM
SK-MEL-5 = test system: SK-MEL-5
NCI-H23 = test system: NCI-H23
SF-268 = test system: SF-268
CAKI-1 = test system: CAKI-1
Hs-578T = test system: Hs-578T
OVCAR-8 = test system: OVCAR-8
UACC-62 = test system: UACC-62
SF-295 = test system: SF-295
K562 = test system: K562
MDA-MB-435 = test system: MDA-MB-435
NCI/ADR-RES = test system: NCI/ADR-RES
SN12C = test system: SN12C
BT-549 = test system: BT-549
T47D = test system: T47D

SMILES | GI50 (LOX IMVI) | GI50 (KM12) | GI50 (786-0) | GI50 (HCT-15) | GI50 (CCRF-CEM) | GI50 (SK-MEL-5) | GI50 (NCI-H23) | GI50 (SF-268) | GI50 (CAKI-1) | GI50 (Hs-578T) | GI50 (OVCAR-8) | GI50 (UACC-62) | GI50 (SF-295) | GI50 (K562) | GI50 (MDA-MB-435) | GI50 (NCI/ADR-RES) | GI50 (SN12C) | GI50 (BT-549) | GI50 (T47D)
O=c1ccn(C2OC(CO)C(O)C2[Se]c2ccccc2)c(=O)[nH]1 (centres undefined) | > 100 µM (inactive) | > 100 µM (inactive) | > 100 µM (inactive) | > 100 µM | > 100 µM (inactive) | > 100 µM (inactive) | > 100 µM (inactive) | > 100 µM (inactive) | > 100 µM (inactive) | > 100 µM (inactive) | > 100 µM (inactive) | 0.353 µM (active) | > 100 µM (inactive) | > 100 µM (inactive) | > 100 µM (inactive) | > 100 µM (inactive) | > 100 µM (inactive) | > 100 µM (inactive) | –
O=S(=O)(O)c1c(Cl)cc(O)c2ncccc12 | > 100 µM (inactive) | > 100 µM (inactive) | > 100 µM (inactive) | > 100 µM | > 100 µM (inactive) | > 100 µM (inactive) | > 100 µM (inactive) | – | > 100 µM (inactive) | – | > 100 µM (inactive) | > 100 µM (inactive) | > 100 µM (inactive) | > 100 µM (inactive) | > 100 µM (inactive) | > 100 µM (inactive) | > 100 µM (inactive) | > 100 µM (inactive) | > 100 µM (inactive)
CN(C)c1n/c(=N/Cc2ccccn2)ss1 | 2.51 µM (inactive) | > 9.57 µM (inactive) | > 4.16 µM (inactive) | 9.68 µM | 1.24 µM (inactive) | > 10 µM (inactive) | > 10 µM (inactive) | > 10 µM (inactive) | > 7.94 µM (inactive) | > 10 µM (inactive) | > 5.3 µM (inactive) | > 10 µM (inactive) | > 10 µM (inactive) | 2.51 µM (inactive) | > 10 µM (inactive) | > 10 µM (inactive) | 9.77 µM (inactive) | – | > 10 µM (inactive)
CCOC(=O)N1CCC2(CC1)C[C@@](C(C)=O)(c1ccccc1)C(C)O2 (some centres undefined) | > 100 µM (inactive) | > 100 µM (inactive) | > 100 µM (inactive) | > 100 µM | – | > 100 µM (inactive) | > 100 µM (inactive) | > 100 µM (inactive) | > 100 µM (inactive) | > 100 µM (inactive) | > 100 µM (inactive) | 56 µM (inactive) | > 100 µM (inactive) | > 100 µM (inactive) | > 100 µM (inactive) | > 100 µM (inactive) | – | – | 17 µM (inactive)
